Consider 2 compounds from US20240016807A1, “COMBINATION THERAPY FOR THE TREATMENT OF A LIVER DISEASE” (INVENTIVA, priority 2020, published 2024).

Molecules are shown by their SMILES.

Type in all cases: in vivo, C57BL6/J mice
Series [1] has as its system HFCC+CDX diet model (liver histology). The series can be described thus: Liver histology (steatosis, inflammation, fibrosis scoring, % Sirius Red) in HFCC/CDX diet mouse model. The conditions noted are these: for histological fibrosis score: compared to the vehicle group (score of 1); for histological steatosis score / histological inflammation score: 3 being the maximum; for histological steatosis score: all vehicle animals scored 3; for histological inflammation score: all vehicle mice scored 3; for surface of fibrosis (collagen deposition within the liver): vehicle 0.14%; for total scoring including steatosis, inflammation and fibrosis scoring: vehicle 6.9. As to the method:
(§1) It has been reported (Duparc T et al., Am J Physiol Gasterointest Liver Physiol, 2019, Vol. 317, n° 4, pages G508-G517) that mice fed with a high fat/high cholesterol/high cholic acid diet with 2% 2-hydroxypropyl beta-cyclodextrin in drinking water for 3 weeks rapidly develops liver complications such as steatosis, inflammation and fibrosis with concomitant increase in plasma ALT/AST levels. The benefit of a combination therapy comprising lanifibranor and firsocostat was assessed in this model. C57BL6/J mice were fed for 3 weeks with a 60% high fat/1.25% cholesterol/0.5% cholic acid diet with 2% 2-hydroxypropyl beta-cyclodextrin in drinking water (HFCC/CDX diet). After 1 week of diet, blood was collected (˜150 μL/ethylenediaminetetraacetic acid (EDTA)) in non-fasting conditions and plasma ALT and AST levels were measured. Mice were then randomized into 4 homogenous treatment groups (n=10 mice per group) according to their 1) ALT levels, 2) AST levels and 3) body weight. The four groups received then their treatment for the remaining 2 weeks on top of the HFCC/CDX diet as follows: • Group 1: vehicle 1+vehicle 2; • Group 2: lanifibranor+vehicle 2; • Group 3: vehicle 1+firsocostat; • Group 4: lanifibranor+firsocostat. All treatments were given QD per os. Vehicle 1 stands for lanifibranor's vehicle (i.e. methyl cellulose/poloxamer), vehicle 2 stands for firsocostat's vehicle (i.e. Tween®80/methylcellulose). Lanifibranor was given at 10 mg/kg for 2 weeks and firsocostat was given at 30 mg/kg for the first 6 days and then at 15 mg/kg for the last 8 days: due to the high loss of weight observed in the combination group, the dose of firsocostat was adapted to limit toxicity. At the end of the treatment period all the mice were weighted and 4-hour fasted prior to blood collection (maximal volume/EDTA). Plasma was isolated and stored at −80° C. Plasma leftover was used for evaluation of plasmatic triglycerides, cholesterols and free fatty acid. After blood collection, mice were sacrificed by cervical dislocation under isoflurane anaesthesia and exsanguinated with sterile saline. The liver was collected and weighted then liver samples were dissected for histology analysis (H&E, Sirius Red staining, % Sirius Red labelling and NAFLD Activity Score (NAS)), liver lipids assay, hepatic gene expression of IL-1b, MCP-1 for inflammation, Col1 alpha1 and TGF-beta for fibrosis were analysed by qPCR.

In series [2] the test system is hepatic gene expression of IL-1b, MCP-1, Col1 alpha1 and TGF-beta. The series can be described thus: Hepatic gene expression by qPCR (inflammation and fibrosis genes) in HFCC/CDX diet mouse model. The conditions noted are these: liver, vs vehicle, 2 weeks treatment. The protocol: as §1
Series [3] is described as follows: Body weight follow-up in HFCC/CDX diet mouse model. The note with it: for body weight: during treatment, lanifibranor 10 mg/kg QD per os, firsocostat 30 mg/kg QD per os in first week. The protocol:
It has been reported (Duparc T et al., Am J Physiol Gasterointest Liver Physiol, 2019, Vol. 317, n° 4, pages G508-G517) that mice fed with a high fat/high cholesterol/high cholic acid diet with 2% 2-hydroxypropyl beta-cyclodextrin in drinking water for 3 weeks rapidly develops liver complications such as steatosis, inflammation and fibrosis with concomitant increase in plasma ALT/AST levels. The benefit of a combination therapy comprising lanifibranor and firsocostat was assessed in this model.
(§2) C57BL6/J mice were fed for 3 weeks with a 60% high fat/1.25% cholesterol/0.5% cholic acid diet with 2% 2-hydroxypropyl beta-cyclodextrin in drinking water (HFCC/CDX diet). After 1 week of diet, blood was collected (˜150 μL/ethylenediaminetetraacetic acid (EDTA)) in non-fasting conditions and plasma ALT and AST levels were measured. Mice were then randomized into 4 homogenous treatment groups (n=10 mice per group) according to their 1) ALT levels, 2) AST levels and 3) body weight. The four groups received then their treatment for the remaining 2 weeks on top of the HFCC/CDX diet as follows: • Group 1: vehicle 1+vehicle 2; • Group 2: lanifibranor+vehicle 2; • Group 3: vehicle 1+firsocostat; • Group 4: lanifibranor+firsocostat.
All treatments were given QD per os. Vehicle 1 stands for lanifibranor's vehicle (i.e. methyl cellulose/poloxamer), vehicle 2 stands for firsocostat's vehicle (i.e.
Tween®80/methylcellulose). Lanifibranor was given at 10 mg/kg for 2 weeks and firsocostat was given at 30 mg/kg for the first 6 days and then at 15 mg/kg for the last 8 days: due to the high loss of weight observed in the combination group, the dose of firsocostat was adapted to limit toxicity. At the end of the treatment period all the mice were weighted and 4-hour fasted prior to blood collection (maximal volume/EDTA). Plasma was isolated and stored at −80° C. Plasma leftover was used for evaluation of plasmatic triglycerides, cholesterols and free fatty acid. After blood collection, mice were sacrificed by cervical dislocation under isoflurane anaesthesia and exsanguinated with sterile saline.

In series [4] the test system is HFCC+CDX diet model (liver lipids). The series can be described thus: Liver lipids assay in HFCC/CDX diet mouse model. The note with it: 2 weeks treatment QD per os; lanifibranor 10 mg/kg, firsocostat 30 then 15 mg/kg. The protocol: as §1
Series [5] concerns epididymal white adipose tissue (EWAT). The series can be described thus: Epididymal white adipose tissue weight in HFCC/CDX diet mouse model. The note with it: 2 weeks treatment QD per os; lanifibranor 10 mg/kg, firsocostat 30 then 15 mg/kg. The protocol:
as §2, with “It has been reported (Duparc T et al., Am J Physiol Gasterointest Liver Physiol, 2019, Vol. 317, n° 4, pages G508-G517) that mice fed with a high fat/high cholesterol/high cholic acid diet with 2% 2-hydroxypropyl beta-cyclodextrin in drinking water for 3 weeks rapidly develops liver complications such as steatosis, inflammation and fibrosis with concomitant increase in plasma ALT/AST levels. The benefit of a combination therapy comprising lanifibranor and firsocostat was assessed in this model. C57BL6/J” for “C57BL6/J”, “lanifibranor+firsocostat. All treatments were given QD per os. […]” for “lanifibranor+firsocostat.”

For the compound `COc1ccccc1[C@H](Cn1c(=O)n(C(C)(C)C(=O)O)c(=O)c2c(C)c(-c3ncco3)sc21)OC1CCOCC1` [firsocostat], in series [1], the histological fibrosis score result was “no effect”; the histological steatosis score entry is listed as “score of 2 in 7 animals but had no effect in 2 animals”; the histological inflammation score was 1 animals had a score of 3, 7 animals had a score of 2 and 1 animal had a score of 1; the “surface of fibrosis (collagen deposition within the liver)” value is 0.10%. In addition, in series [1], the “total scoring including steatosis, inflammation and fibrosis scoring” value turned out to be 5.1. Further, in series [2], the “hepatic IL-1beta expression” value was “decreased both IL-1beta and MCP-1 expressions but only the decrease in MCP-1 expression reached significance”; the “hepatic MCP-1 expression” value is “decreased both IL-1beta and MCP-1 expressions but only the decrease in MCP-1 expression reached significance”; the “hepatic TGF-beta1 expression” value is “statistically decreased”; the “hepatic collagen 1 alpha 1 expression” value is reported as “statistically decreased”. The “body weight after firsocostat dose reduction” value in series [3] (after firsocostat dose reduced from 30 mg/kg to 15 mg/kg) was “normalized their body weight”. In addition, the body weight result in series [3] is “induced a body weight loss in the first week of treatment”. In series [4], the “hepatic fatty acids levels, change vs vehicle” value is on record as −16%; the “hepatic total cholesterol, change vs vehicle” value was −9%; the “hepatic triglycerides, change vs vehicle” value is on record as −14%. Besides, the “epididymal white adipose tissue (EWAT) weight” value in series [5] is “neither lanifibranor alone, firsocostat alone nor the combination of lanifibranor and firsocostat had an effect”.
On to `O=C(O)CCCc1cc2cc(Cl)ccc2n1S(=O)(=O)c1ccc2ncsc2c1` [lanifibranor, 5-Chloro-1-[(6-benzothiazolyl)sulfonyl]-1H-indole-2-butanoic acid], for which, in series [1], the histological fibrosis score entry is on record as “no effect”; the histological steatosis score entry is “score of 2 for 8 animals and of 1 for 2 animals”; the histological inflammation score was 2 animals had a score of 3, 6 animals had a score of 2 and 2 animals had a score of 1; the “surface of fibrosis (collagen deposition within the liver)” value is reported as 0.08%. Further, the “total scoring including steatosis, inflammation and fibrosis scoring” value in series [1] is reported as 4.7. Further, in series [2], the “hepatic IL-1beta expression” value is “statistically decreased”, the “hepatic MCP-1 expression” value was “statistically decreased”, the “hepatic TGF-beta1 expression” value was “statistically decreased” and the “hepatic collagen 1 alpha 1 expression” value is on record as “statistically decreased”. For the same compound, the body weight result in series [3] is recorded as “minor body weight loss that was not significant”. In series [4], the “hepatic fatty acids levels, change vs vehicle” value is “no effect”; the “hepatic total cholesterol, change vs vehicle” value is −18%; the “hepatic triglycerides, change vs vehicle” value is given as −7%. In series [5], the “epididymal white adipose tissue (EWAT) weight” value was “neither lanifibranor alone, firsocostat alone nor the combination of lanifibranor and firsocostat had an effect”.
